Results reported in patent US4524147A, “Uracil derivatives, process for preparing same, and pharmaceutical compositions comprising same” (Mitsui Toatsu Chemicals, Incorporated, priority 1981, dated 1985).
Counter-ions that a name gives are not always drawn.

Columns and labels:
adjuvant arthritis = experiment: Adjuvant arthritis test (hind paw swelling); format: in vivo, rats (SD strain, male); details: 5 mg/kg subcutaneous, nine times before and after injection of adjuvant; left hind paw volume; * P<0.05 vs control
Procedure: The adjuvant arthritis induced in rats by injection of a tubercle bacillus adjuvant is frequently used as an experimental model for rheumatoid arthritis in man.
Although the mechanism by which this phenomenon occurs is not completely elucidated, cellular immunity is known to play an important role. Employing this well-known adjuvant arthritis test, the same compounds of the present invention were further examined for immunomodulatory activity.
[Adjuvant arthritis test]
An adjuvant was prepared by suspending 0.4 mg of killed and dried cells of the human type tubercle bacillus (Mycobacterium tuberclosis) in 0.1 ml of liquid paraffin, and inoculated intradermally into the right hind paw of 8-weeks-old male rats of the SD strain. Each of the two compounds of the present invention was subcutaneously administered nine times before and after injection of the adjuvant. These compounds were dissolved or suspended in physiological saline containing 0.2% carboxymethyl cellulose and administered in an amount of 5 mg per kg of body weight. The volume of the left hind paw of each animal was daily measured from the day of inoculation of the adjuvant to the end of the test, and the calculated percent inhibition of swelling is shown in Table 2. For purposes of comparison, the results of an experiment with Levamisole hydrochloride are also given. The test results thus obtained were subjected to statistical analysis using the F.t test. The values marked with an asterisk (*) indicate that, when they were compared with the value of a control group treated solely with physiological saline containing 0.2% carboxymethyl cellulose, the differences were significant at P<0.05.

[1] = Test for acute oral toxicity; parameters: species or system mice (ddY strain; details: mouse, in vivo, 5 male ddY mice per group, observed for 7 days, estimated
Procedure: The toxicity of the active ingredients of some typical pharmaceutical composition of the present invention was examined in the following Evaluation Test 3.
[Test for acute oral toxicity]
Each of the compounds used in Evaluation Tests 1 and 2 was dissolved or suspended in physiological saline and administered orally to a group of 5 male mice of the ddY strain. The LD50 value of the compound was estimated by observing these animals for 7 days after administration.

delayed hypersensitivity = experiment: Augmentation test of delayed hypersensitivity (picryl chloride, mouse ear thickness); format: in vivo, mice (ICR strain, male); details: 50 mg/kg oral, simultaneously with sensitization; 24 hours after challenge; average of 16 measurements of 8 animals; * P<0.05 vs control
From the text: These facts are more fully explained with reference to the following evaluation tests. A variety of experimental systems are being commonly used to test immunomodulatory activity in animals. Of such tests, the most typical one is an augmentation test of delayed hypersensitivity as shown below. […] L., and Ptak, W. "Contact and delayed hypersensitivity in the mouse I. Active sensitization and passive transfer," Immunology, 15, 405-416(1968)). In the following Evaluation Test 1, this experimental system was used to carry out an augmentation test of delayed hypersensitivity. [Augmentation test of delayed hypersensitivity] Male mice of the ICR strain, weighing approximately 30 g, were used in groups of eight. These animals were sensitized by shaving the hair on the abdomen and applying thereto a 3% solution of picryl chloride in a 4:1 mixture of olive oil and acetone. Simultaneously with this sensitization, each of two compounds of the present invention was dissolved or suspended in physiological saline containing 0.2% carboxymethyl cellulose and administered orally to the animals in a dose of 50 mg per kg of body weight. A control group was treated solely with physiological saline containing 0.2% carboxymethyl cellulose. Seven days after sensitization, delayed hypersensitivity was challenged by wrapping the tips of a forceps with pieces of felt, impregnating the felt with olive oil containing 1% picryl chloride, and pinching both ears of each animal. The thicknesses of the ears were measured before and 24 hours after the challenge, and the calculated percent increase of ear thickness (the average of 16 measurements made of the ears of 8 animals) is shown in Table 1. For purposes of comparison, the results of an experiment with Lavamisole hydrochloride are also given. The test results thus obtained were subjected to statistical analysis using the F.t test. The values marked with an asterisk (*) indicate that, when they were compared with the value of the control group, the differences were significant at P<0.05.

Row | Structure (SMILES) | Percent inhibition of swelling as compared with control group (average of 16-20 days) (adjuvant arthritis) [%] | LD50 at 168 h [1] [mg/kg] | Percent increase of ear thickness (delayed hypersensitivity) [%]
1 | c1ccc([C@H]2CN3CCSC3=N2)cc1 [Levamisole hydrochloride, reference compound] | 19.8 | 200 to 300 | 31.2
2 | O=C(C(=O)n1ccc(=O)[nH]c1=O)n1ccc(=O)[nH]c1=O [drawing 4] |  |  | 33.9
3 | Cc1cn(C(=O)C(=O)n2cc(C)c(=O)[nH]c2=O)c(=O)[nH]c1=O [drawing 5] |  |  | 28.6
4 | O=C(C(=O)n1ccc(=O)[nH]c1=O)n1ccc(=O)[nH]c1=O [drawing 6] | 41.4 |  | 
5 | Cc1cn(C(=O)C(=O)n2cc(C)c(=O)[nH]c2=O)c(=O)[nH]c1=O [drawing 7] | 29.9 |  | 
